{"source": "patent US11766429B1", "about": "“Nicotinic receptor antagonists and pioglitazone as therapeutic agents for Covid-19” (priority 2020, dated 2023)", "key": {"[1]": {"conditions": "higher doses (30-90 mg/day); cited from earlier work"}, "[2]": {"test_system": "inflammatory cytokine gene expression (IL1-β, IL-6, TNF-α)", "assay": "Inflammatory cytokine gene expression in MHV4 infected IMG cells", "type": "cell-based", "conditions": "2 MOI MHV4, mecamylamine 1, 10 or 40 μM, 48 hours"}, "[3]": {"test_system": "mouse hepatitis virus strain 4 (MHV4)", "assay": "MHV4 replication in infected IMG cells (GFP expression, N gene qPCR)", "type": "cell-based", "conditions": "2 MOI MHV4, mecamylamine 1, 10 or 40 μM, 48 hours"}, "[4]": {"test_system": "inflammatory cytokines IL-6, IL-1β, and TNFα", "assay": "SARS-CoV-2 induced cytokine gene expression in Calu3 cells", "type": "cell-based", "conditions": "0.1 MOI SARS CoV2, single agent: PG 20 μM, Mec 5 μM or Mec iso 5 μM, 48 hrs"}, "[5]": {"conditions": "in vivo; cited from earlier work"}, "[6]": {"test_system": "human α3β4, α4β2, α3β2 and α7 receptors", "conditions": "cited from earlier work; for selectivity between nAChR types: neuronal vs muscle-type nAChRs; for mode of inhibition: neuronal nAChRs"}}}
{"molecule": "CNC1(C)C2CCC(C2)C1(C)C", "note": "(racemic) [mecamylamine]", "values": [{"measurement": "side effects", "setting": "[1]", "value": "causes unfavorable side effects"}, {"measurement": "cytokine gene transcription (qPCR)", "setting": "[2]", "value": "dose-dependent decrease"}, {"measurement": "GFP expressing cells", "setting": "[3]", "value": "dose-dependent decrease"}, {"measurement": "MHV-4 N-gene expression", "setting": "[3]", "value": "dose-dependent decrease"}, {"measurement": "inflammatory cytokines IL-6, IL-1β, and TNFα", "setting": "[4]", "value": "significant decrease"}, {"measurement": "blood brain barrier penetration", "setting": "[5]", "value": "ability to cross the blood brain barrier"}, {"measurement": "selectivity between nAChR types", "setting": "[6]", "value": "selective for neuronal nAChRs over muscle-type nAChRs"}]}
{"molecule": "CNC1(C)C2CCC(C2)C1(C)C", "note": "(stereo not drawn) [R-(−)-mecamylamine]", "values": [{"measurement": "mode of inhibition", "setting": "[6]", "value": "noncompetitive inhibitors"}, {"measurement": "selectivity between nAChR types", "setting": "[6]", "value": "selective for neuronal nAChRs over muscle-type nAChRs"}]}
{"molecule": "CN[C@@]1(C)[C@@H]2CC[C@@H](C2)C1(C)C", "note": "[S-(+)-mecamylamine]", "values": [{"measurement": "mode of inhibition", "setting": "[6]", "value": "noncompetitive inhibitors"}, {"measurement": "selectivity between nAChR types", "setting": "[6]", "value": "selective for neuronal nAChRs over muscle-type nAChRs"}]}
